{"source": "paper PMC4551797", "about": "(PLoS ONE, 2015)", "key": {"C57BL/6 mice [1]": {"system": "C57BL/6 mice", "experiment": "Oral glucose tolerance test, glucose only", "details": "100 mg/kg oral, glucose 3 g/kg 15 min after compound", "quoted_text": "For measurement of glucose only, overnight-fasted C57BL/6 mice in a normal light cycle were orally dosed with vehicle or compound, followed by an oral bolus of 3 g/kg glucose at 15 minutes post compound. At 0, 20, 40, 60, and 120 minutes post glucose dose, blood glucose was assessed via glucometers. Resulting raw data was used to generate AUCs. […] At 0, 15, 30, 60, and 120 minutes post glucose dose, blood glucose was assessed via glucometers. Resulting raw data was used to generate AUCs."}, "[2]": {"experiment": "Plasma compound levels after oral dosing (LC-MS/MS)", "details": "C57BL/6, mouse, 100 mg/kg"}, "C57BL/6 mice [3]": {"system": "C57BL/6 mice", "experiment": "Three-day study on GLP-1 and gallbladder filling (bile weight)", "type": "in vivo, mouse", "details": "100 mg/kg oral BID 3 days, 30 min after last dose", "protocol": "C57BL/6 mice, Tgr5 KO mice, or their wild-type littermate controls were orally dosed with vehicle or compounds twice per day for 3 days, with overnight fasting performed on the evening of day 2. On the morning of day 3, animals were dosed orally with compounds and then euthanized by CO2 asphyxiation at 30 minutes after the fifth dose. Plasma was collected for analysis of GLP-1 (X-36) amide as mentioned above, followed immediately by incision into the abdominal cavity to remove and weigh bile from the gallbladder.\nOn the third day, compound was dosed in the morning followed 30 minutes later by measurement of bile filling (A) by use of a needle and syringe and GLP-1 (x-36) amide (B) by cardiac puncture."}, "gallbladder": {"system": "gallbladder", "details": "cited from earlier work"}, "C57BL/6 mice [4]": {"system": "C57BL/6 mice", "experiment": "Acute in vivo incretin secretion assay (plasma GLP-1 and PYY AUC)", "details": "100 mg/kg oral, fasted mice, 3-hour time course", "description": "Plasma was separated by centrifugation, aliquoted, and analyzed for GLP-1 (X-36) amide (Mesoscale Discovery) and total PYY (Millipore). Resulting raw data was used to generate area under the curve analyses (AUCs)."}, "C57BL/6 mice [5]": {"system": "C57BL/6 mice", "experiment": "Oral glucose tolerance test with hormone measurement", "type": "in vivo, mouse", "details": "10 mg/kg oral, glucose 3 g/kg, 1 hour", "protocol": "For measurement of glucose only, overnight-fasted C57BL/6 mice in a normal light cycle were orally dosed with vehicle or compound, followed by an oral bolus of 3 g/kg glucose at 15 minutes post compound. At 0, 20, 40, 60, and 120 minutes post glucose dose, blood glucose was assessed via glucometers. Resulting raw data was used to generate AUCs. For measurement of hormones and glucose, overnight-fasted C57BL/6 mice acclimated for two weeks to a reverse light cycle were orally dosed with vehicle or compound, followed by an oral bolus of 3 g/kg glucose at 15 minutes post compound. At 0, 2, 5, 10, 20, 40, and 60 minutes post glucose dose, blood glucose was assessed via glucometers, followed immediately by collection of plasma for active GLP-1 (Mesoscale Discovery), insulin (Mesoscale Discovery), and total PYY. Glucose tolerance tests in diet-induced obese (DIO) C57BL/6 mice were performed in overnight-fasted animals dosed either acutely or after 2-week administration with vehicle or compound 18 at 60 mg/kg, followed 30 minutes post compound by an oral bolus of 2 g/kg glucose. At 0, 15, 30, 60, and 120 minutes post glucose dose, blood glucose was assessed via glucometers. Resulting raw data was used to generate AUCs.\nTo evaluate glucose, insulin, GLP-1, and PYY levels throughout the OGTT, each time-point consisted of a separate group of mice that were used to record glucose by use of a glucometer followed by terminal bleeds for measurement of active GLP-1, total PYY, and insulin. AUCs were then calculated for the entire hour of the OGTT. […] Changes in insulin AUCs were not increased with treatment of either sitagliptin or compound 18, likely due to the lower glucose levels reducing the drive for glucose-stimulated insulin secretion (Fig 5D).\nFig 5 Compound 18 increases GLP-1 and PYY and lowers the glucose and insulin excursions as compared to sitagliptin in an OGTT in C57BL/6 mice. […] Plasma was analyzed for active GLP-1 (A), total PYY (B), and insulin (D), while blood glucose was measured by glucometers (C)."}}}
{"smiles": "CC[C@H]1[C@@H](O)[C@@H]2[C@H](C[C@H](O)[C@]3(C)[C@@H]([C@H](C)C[C@H](C)C(=O)O)CC[C@@H]23)[C@@]2(C)CC[C@@H](O)C[C@@H]12", "note": "[INT-777, 6α-ethyl-23(S)-methylcholic acid, reference compound]", "values": [{"measurement": "effect on glucose tolerance in OGTT", "setting": "C57BL/6 mice [1]", "value": "no detectable improvement of glucose tolerance"}, {"measurement": "AUC(0-t)", "setting": "[2]", "value": 264, "unit": "µM·h"}, {"measurement": "Cmax", "setting": "[2]", "value": 136, "unit": "µM"}, {"measurement": "Tmax", "setting": "[2]", "value": 1.5, "unit": "h"}, {"measurement": "bile weight (gallbladder filling)", "setting": "C57BL/6 mice [3]", "value": "significant increase in bile weight"}, {"measurement": "plasma GLP-1 levels", "setting": "C57BL/6 mice [3]", "value": "no detectable increase in GLP-1"}, {"measurement": "gallbladder filling with bile", "setting": "gallbladder", "value": "stimulated gallbladder filling with bile"}, {"measurement": "GLP-1 AUC increase over vehicle", "setting": "C57BL/6 mice [4]", "value": 2.8, "unit": "fold over vehicle"}, {"measurement": "PYY AUC increase over vehicle", "setting": "C57BL/6 mice [4]", "value": 1.6, "unit": "fold over vehicle"}]}
{"smiles": "N[C@@H](CC(=O)N1CCn2c(nnc2C(F)(F)F)C1)Cc1cc(F)c(F)cc1F", "note": "[sitagliptin, reference compound]", "values": [{"measurement": "insulin AUC during OGTT", "setting": "C57BL/6 mice [5]", "value": "not increased"}]}
